Measurements published in patent US11504382B2, “Tricyclic inhibitors of Hepatitis B virus” (Antios Therapeutics, Inc., priority 2018, dated 2022).
Read-outs that look alike come from different tables or passages of the source.

Tested on: HBV
Test: HBV inhibition assay in HepAD38 cells (extracellular HBV DNA by direct qPCR)
Type: cell-based, Hepatitis B virus
Conditions: 96 hours; for EC50: 8-point dose-response curve, read-out: HBV inh EC50; for Anti HBV Activity (conc μM) / inhibition at 0.1 µM / inhibition at 0.05 µM: relative to non-treated reference; for inhibition at 0.1 µM / inhibition at 0.05 µM: read-out: Anti HBV Activity (conc μM)

Compound | EC50 (Hepatitis B virus) [nM] | also measured
Cc1cc(NC(=O)c2c3c(cn2C)S(=O)(=O)N[C@H]2CN(C(=O)c4ncoc4C)C[C@H]2CO3)ccc1F [Example E113, (3aR,10aR)—N-(4-fluoro-3-methylphenyl)-7-methyl-2-(5-methyloxazole-4-carbonyl)-2,3,3a,4,10,10a-hexahydro-1H,7H-dipyrrolo[3,4-b:3′,4′-f][1,4,5]oxathiazocine-8-carboxamide 5,5-dioxide] | < 1000 | 
Cc1nc(C(=O)N2C[C@H]3COc4c(cn(C)c4C(=O)Nc4ccc(F)c(C)c4)S(=O)(=O)N[C@H]3C2)c(C)o1 [Example E114, (3aR,10aR)-2-(2,5-dimethyloxazole-4-carbonyl)-N-(4-fluoro-3-methylphenyl)-7-methyl-2,3,3a,4,10,10a-hexahydro-1H,7H-dipyrrolo[3,4-b:3′,4′-f][1,4,5]oxathiazocine-8-carboxamide 5,5-dioxide] | < 1000 | 
Cc1cc(NC(=O)c2c3c(cn2C)S(=O)(=O)NC2CN(C(=O)C4(C)CCCO4)CC2CO3)ccc1F (stereo not drawn) [Example E148, Trans-N-(4-fluoro-3-methylphenyl)-7-methyl-2-(2-methyltetrahydrofuran-2-carbonyl)-2,3,3a,4,10,10a-hexahydro-1H,7H-dipyrrolo[3,4-b:3′,4′-f][1,4,5]oxathiazocine-8-carboxamide 5,5-dioxide] | < 1000 | 
Ethyl 8-((3-chloro-4-fluorophenyl)carbamoyl)-7-methyl-3a,4,10,10a-tetrahydro-1H,7H-dipyrrolo[3,4-b:3′,4′-f][1,4,5]oxathiazocine-2(3H)-carboxylate 5,5-dioxide (3aR,10aR) [Example E41] |  | Anti HBV Activity (conc μM) (0.05 μM): A (0.05) (HBV inhibition greater than 50% at the concentration indicated in the table); EC50: < 1000 nM
Cc1cc(NC(=O)c2c3c(cn2C)S(=O)(=O)NC2CN(CC(F)(F)F)CC2CO3)ccc1F (stereo not drawn) [Example E80, cis-N-(4-fluoro-3-methylphenyl)-7-methyl-2-(2,2,2-trifluoroethyl)-2,3,3a,4,10,10a-hexahydro-1H,7H-dipyrrolo[3,4-b:3′,4′-f][1,4,5]oxathiazocine-8-carboxamide 5,5-dioxide] |  | inhibition at 0.1 µM (Hepatitis B virus, 0.1 μM): > 50%
Cc1cc(NC(=O)c2c3c(cn2C)S(=O)(=O)NC2CCN(C(=O)C4(C)CCCO4)CC2CO3)ccc1F (racemic) [Example E127, Cis-N-(4-fluoro-3-methylphenyl)-2-methyl-8-(2-methyltetrahydrofuran-2-carbonyl)-5,5a,6,7,8,9,9a,10-octahydro-2H-pyrido[4,3-f]pyrrolo[3,4-b][1,4,5]oxathiazocine-1-carboxamide 4,4-dioxide] | < 1000 | 
Cc1cc(NC(=O)c2c3c(cn2C)S(=O)(=O)N[C@@H]2CN(C(=O)c4ccncc4)C[C@@H]2CO3)ccc1F (relative stereo) [Example E55, cis-N-(4-fluoro-3-methylphenyl)-2-isonicotinoyl-7-methyl-2,3,3a,4,10,10a-hexahydro-1H,7H-dipyrrolo[3,4-b:3′,4′-f][1,4,5]oxathiazocine-8-carboxamide 5,5-dioxide] |  | inhibition at 0.1 µM (Hepatitis B virus, 0.1 μM): > 50%
Cn1cc2c(c1C(=O)Nc1cc(F)c(F)c(F)c1)OC[C@@H]1CNC[C@@H]1NS2(=O)=O [Example E36, 7-methyl-N-(3,4,5-trifluorophenyl)-2,3,3a,4,10,10a-hexahydro-1H,7H-dipyrrolo[3,4-b:3′,4′-f][1,4,5]oxathiazocine-8-carboxamide 5,5-dioxide (3aR,10aR)] |  | inhibition at 0.1 µM (Hepatitis B virus, 0.1 μM): < 50%
Cc1cc(NC(=O)c2c3c(cn2C)S(=O)(=O)NC2CCN(C(=O)C45CC(CO4)C5)CC2CO3)ccc1F (racemic) [Example E128, Cis-8-(2-oxabicyclo[2.1.1]hexane-1-carbonyl)-N-(4-fluoro-3-methylphenyl)-2-methyl-5,5a,6,7,8,9,9a,10-octahydro-2H-pyrido[4,3-f]pyrrolo[3,4-b][1,4,5]oxathiazocine-1-carboxamide 4,4-dioxide] | < 1000 | 
Cn1cc2c(c1C(=O)Nc1cc(F)c(F)c(F)c1)OC[C@H]1CN(c3ncc(O)cn3)C[C@H]1NS2(=O)=O (relative stereo) [Example E84, cis-2-(5-hydroxypyrimidin-2-yl)-7-methyl-N-(3,4,5-trifluorophenyl)-2,3,3a,4,10,10a-hexahydro-1H,7H-dipyrrolo[3,4-b:3′,4′-f][1,4,5]oxathiazocine-8-carboxamide 5,5-dioxide] | < 1000 | 
C[C@@H](O)[C@H](N)C(=O)N1C[C@@H]2COc3c(cn(C)c3C(=O)Nc3cc(F)c(F)c(F)c3)S(=O)(=O)N[C@@H]2C1 (mixture of isomers) [Example E69, cis-2-(L-threonyl)-7-methyl-N-(3,4,5-trifluorophenyl)-2,3,3a,4,10,10a-hexahydro-1H,7H-dipyrrolo[3,4-b:3′,4′-f][1,4,5]oxathiazocine-8-carboxamide 5,5-dioxide] |  | inhibition at 0.1 µM (Hepatitis B virus, 0.1 μM): < 50%
Cc1nnc(C(=O)N2CC3COc4c(cn(C)c4C(=O)Nc4cc(F)c(F)c(F)c4)S(=O)(=O)NC3C2)o1 (stereo not drawn) [Example E51, cis-7-methyl-2-(5-methyl-1,3,4-oxadiazole-2-carbonyl)-N-(3,4,5-trifluorophenyl)-2,3,3a,4,10,10a-hexahydro-1H,7H-dipyrrolo[3,4-b:3′,4′-f][1,4,5]oxathiazocine-8-carboxamide 5,5-dioxide] | < 1000 | inhibition at 0.05 µM (Hepatitis B virus, 0.05 μM): > 50%
Cc1cc(NC(=O)c2c3c(cn2C)S(=O)(=O)NC2CN(C(=O)C4(C)COC4)CC2(C)CO3)ccc1F (stereo not drawn) [Example E89, cis-N-(4-fluoro-3-methylphenyl)-7,10a-dimethyl-2-(3-methyloxetane-3-carbonyl)-2,3,3a,4,10,10a-hexahydro-1H,7H-dipyrrolo[3,4-b:3′,4′-f][1,4,5]oxathiazocine-8-carboxamide 5,5-dioxide] | < 1000 | 
Cc1cc(NC(=O)c2c3c(cn2C)S(=O)(=O)NC2CCN(C(=O)C4(C)CCCO4)CC2CO3)ccc1F (racemic) [Example E132, Trans-N-(4-fluoro-3-methylphenyl)-2-methyl-8-(2-methyltetrahydrofuran-2-carbonyl)-5,5a,6,7,8,9,9a,10-octahydro-2H-pyrido[4,3-f]pyrrolo[3,4-b][1,4,5]oxathiazocine-1-carboxamide 4,4-dioxide] |  | EC50: < 1000 nM
CCOC(=O)N1CC2COc3c(cn(C)c3C(=O)Nc3ccc(F)c(F)c3)S(=O)(=O)NC2C1 (racemic) [Example E13, Cis-Ethyl 8-((3,4-difluorophenyl)carbamoyl)-7-methyl-3a,4,10,10a-tetrahydro-1H,7H-dipyrrolo[3,4-b:3′,4′-f][1,4,5]oxathiazocine-2(3H)-carboxylate 5,5-dioxide] | < 1000 | inhibition at 0.1 µM (Hepatitis B virus, 0.1 μM): > 50%
Cc1nnc(C(=O)N2C[C@@H]3COc4c(cn(C)c4C(=O)Nc4ccc(F)c(C)c4)S(=O)(=O)N[C@H]3C2)o1 (single isomer, unassigned) [Example E154] | < 1000 | 
Cc1nnc(C(=O)N2CCC3COc4c(cn(C)c4C(=O)Nc4ccc(F)c(C)c4)S(=O)(=O)NC3C2)o1 (racemic) [Example E135, Cis-N-(4-fluoro-3-methylphenyl)-2-methyl-7-(5-methyl-1,3,4-oxadiazole-2-carbonyl)-5,5a,6,7,8,9,9a,10-octahydro-2H-pyrido[3,4-f]pyrrolo[3,4-b][1,4,5]oxathiazocine-1-carboxamide 4,4-dioxide] | < 1000 | 
Cn1cc2c(c1C(=O)Nc1cc(F)c(F)c(F)c1)OCC1CN(c3ncc(F)cn3)CC1NS2(=O)=O (stereo not drawn) [Example E75, cis-2-(5-fluoropyrimidin-2-yl)-7-methyl-N-(3,4,5-trifluorophenyl)-2,3,3a,4,10,10a-hexahydro-1H,7H-dipyrrolo[3,4-b:3′,4′-f][1,4,5]oxathiazocine-8-carboxamide 5,5-dioxide] | < 1000 | inhibition at 0.05 µM (Hepatitis B virus, 0.05 μM): > 50%
CCOC(=O)N1CC2COc3c(cn(C)c3C(=O)Nc3ccc(F)c(F)c3)S(=O)(=O)NC2C1 (single isomer, unassigned) [Example E37, Ethyl 8-((3,4-difluorophenyl)carbamoyl)-7-methyl-3a,4,10,10a-tetrahydro-1H,7H-dipyrrolo[3,4-b:3′,4′-f][1,4,5]oxathiazocine-2(3H)-carboxylate 5,5-dioxide (Chiral 3aS,10aS or 3aR,10aR - Stereochemistry unknown)] |  | Anti HBV Activity (conc μM) (0.05 μM): A (0.05) (HBV inhibition greater than 50% at the concentration indicated in the table)
CCOC(=O)N1C[C@H]2CS(=O)(=O)c3c(cn(C)c3C(=O)Nc3ccc(F)c(C)c3)S(=O)(=O)N[C@H]2C1 [Example E123, Ethyl (3aR,10aR)-8-((4-fluoro-3-methylphenyl)carbamoyl)-7-methyl-3a,4,10,10a-tetrahydro-1H,7H-dipyrrolo[3,4-c:3′,4′-g][1,6,2]dithiazocine-2(3H)-carboxylate 5,5,9,9-tetraoxide] | < 1000 | 
Cc1nnc(N2C[C@H]3COc4c(cn(C)c4C(=O)Nc4ccc(F)c(Cl)c4)S(=O)(=O)N[C@H]3C2)o1 [Example E119, (3aR,10aR)—N-(3-chloro-4-fluorophenyl)-7-methyl-2-(5-methyl-1,3,4-oxadiazol-2-yl)-2,3,3a,4,10,10a-hexahydro-1H,7H-dipyrrolo[3,4-b:3′,4′-f][1,4,5]oxathiazocine-8-carboxamide 5,5-dioxide] | < 1000 | 
CCOC(=O)N1CC2COc3c(cn(C)c3C(=O)Nc3ccc(F)c(F)c3)S(=O)(=O)NC2C1 (single isomer, unassigned) [Example E38, Ethyl 8-((3,4-difluorophenyl)carbamoyl)-7-methyl-3a,4,10,10a-tetrahydro-1H,7H-dipyrrolo[3,4-b:3′,4′-f][1,4,5]oxathiazocine-2(3H)-carboxylate 5,5-dioxide (Chiral 3aS,10aS or 3aR,10aR - Stereochemistry unknown)] |  | Anti HBV Activity (conc μM) (0.1 μM): B (0.1) (HBV inhibition less than 50% at the concentration indicated in the table)
CCOC(=O)N1C[C@H]2COc3c(cn(C)c3C(=O)Nc3ccc(F)c(C)c3)S(=O)(=O)N[C@H]2C1 (single isomer, unassigned) [Example E39] | < 1000 | inhibition at 0.05 µM (Hepatitis B virus, 0.05 μM): > 50%
